Assay [1] relates to Frankliniella occidentalis. In words: Antifeedant activity against Frankliniella occidentalis (western flower thrips) at 500 ppm. It is filed as functional, organism-based.
Assay [2] concerns Myzus persicae. In words: Insecticidal activity against Myzus persicae (green peach aphid) assessed as insect mortality at 100 ppm. It is filed as functional.
The test system of assay [3] is Frankliniella occidentalis. In words: Insecticidal activity against Frankliniella occidentalis (western flower thrips) assessed as insect mortality at 500 ppm. In kind it is functional.
Assay [4] relates to Myzus persicae. The assay is described as follows: Insecticidal activity against Myzus persicae (green peach aphid) assessed as insect mortality at 200 ppm. It is filed as functional.
Assay [5] deals with Podosphaera fuliginea. In words: Fungicidal activity against Podosphaera fuliginea at 500 ppm. In kind it is functional, organism-based.
Assay [6] deals with Botrytis cinerea. In words: Fungicidal activity against Botryotinia fuckeliana at 500 ppm. In kind it is functional, organism-based.
The test system of assay [7] is Tetranychus urticae. In words: Miticidal activity against Tetranychus urticae (two-spotted spider mite) assessed as insect mortality at 500 ppm. It is filed as functional, organism-based.
In assay [8] the test system is Plutella xylostella. In words: Insecticidal activity against Plutella xylostella (diamondback moth) assessed as insect mortality at 500 ppm. In kind it is functional, organism-based.
Assay [9] relates to Bemisia argentifolii. In words: Insecticidal activity against Bemisia argentifolii assessed as insect mortality at 500 ppm. It is filed as functional, organism-based.

The text below walks through data of ChEMBL document CHEMBL3044947, “Isolation of an insecticidal compound oxalicine B from Penicillium sp. TAMA 71 and confirmation of its chemical structure by X-ray crystallographic analysis” (2007).

Active and inactive are the calls of the source. The rule behind the calls is not given here.

For `C=C(C)[C@]1(O)CC[C@]2(C)[C@H](CC=C(C)[C@]23Oc2cc(-c4cccnc4)oc(=O)c2[C@@H]3O)[C@@]12CCC(=O)OC2` [OXALICINE B], the outcome in assay [1], in [5], in assay [6], in assay [7], in assay [8] and in [9] was inactive. Further, in [2], the mortality at 100 ppm stood at 82%. In [3], the mortality at 500 ppm was found to be 32%. In addition, in assay [4], the mortality at 200 ppm was 87%.

In general, mortality refers to the percentage killed.
